According to ChEMBL document CHEMBL5465560, “Selectivity Literature for EUbOPEN Chemogenomic Library” (2024):
Each block holds one compound with its values, some of them ahead of it.

Experiments:
[1] = molecular target: Mitogen-activated protein kinase kinase kinase 1 (Homo sapiens, UniProt Q13233); experiment: Selectivity interaction (Ambit KINOMEscan and KiNATiv profiling in Jurkat cells) EUB0000090b MAP3K1; format: cell-based; details: at 1 µM
[2] = molecular target: T1, Serine/threonine-protein kinase Nek3 (Homo sapiens) (UniProt P51956); experiment: Selectivity interaction (Ambit KINOMEscan and KiNATiv profiling in Jurkat cells) EUB0000090b NEK3; format: cell-based; details: at 1 µM
T1 sequence (whole entry): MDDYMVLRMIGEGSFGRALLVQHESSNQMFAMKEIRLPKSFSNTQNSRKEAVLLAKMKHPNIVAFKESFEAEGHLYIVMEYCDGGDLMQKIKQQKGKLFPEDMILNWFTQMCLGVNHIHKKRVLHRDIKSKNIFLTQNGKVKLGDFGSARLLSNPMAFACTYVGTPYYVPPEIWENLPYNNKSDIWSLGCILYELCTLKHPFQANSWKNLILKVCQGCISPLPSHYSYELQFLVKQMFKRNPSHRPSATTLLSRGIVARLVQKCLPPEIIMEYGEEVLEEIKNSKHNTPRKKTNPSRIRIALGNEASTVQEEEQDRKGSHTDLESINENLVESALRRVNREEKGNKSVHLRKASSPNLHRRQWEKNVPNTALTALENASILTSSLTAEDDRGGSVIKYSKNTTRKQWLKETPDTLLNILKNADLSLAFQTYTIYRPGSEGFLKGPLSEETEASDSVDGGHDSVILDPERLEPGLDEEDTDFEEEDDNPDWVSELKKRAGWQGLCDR

[3] = molecular target: T2, Non-receptor tyrosine-protein kinase TNK1 (Homo sapiens) (UniProt Q13470); experiment: Selectivity interaction (KinomeScan (DiscoverX)) EUB0001079a TNK1; details: at 1 µM
T2 sequence (whole entry): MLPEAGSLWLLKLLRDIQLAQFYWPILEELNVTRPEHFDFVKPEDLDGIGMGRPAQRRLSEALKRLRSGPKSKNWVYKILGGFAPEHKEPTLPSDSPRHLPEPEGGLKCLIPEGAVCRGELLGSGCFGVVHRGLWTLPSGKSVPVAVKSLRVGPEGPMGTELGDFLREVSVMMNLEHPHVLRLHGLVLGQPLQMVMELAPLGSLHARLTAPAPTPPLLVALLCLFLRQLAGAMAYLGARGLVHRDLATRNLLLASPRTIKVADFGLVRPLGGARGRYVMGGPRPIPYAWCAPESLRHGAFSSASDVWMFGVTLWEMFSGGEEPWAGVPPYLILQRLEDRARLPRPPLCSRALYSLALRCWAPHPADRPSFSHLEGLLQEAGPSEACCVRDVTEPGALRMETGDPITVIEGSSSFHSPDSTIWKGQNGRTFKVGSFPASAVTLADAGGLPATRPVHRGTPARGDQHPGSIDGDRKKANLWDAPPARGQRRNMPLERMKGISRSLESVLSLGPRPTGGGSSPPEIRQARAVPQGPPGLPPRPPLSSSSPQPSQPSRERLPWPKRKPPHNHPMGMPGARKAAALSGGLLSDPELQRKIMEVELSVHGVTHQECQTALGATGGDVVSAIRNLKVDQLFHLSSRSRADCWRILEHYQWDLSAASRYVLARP

[4] = molecular target: Platelet-derived growth factor receptor beta (Homo sapiens, UniProt P09619); experiment: Selectivity interaction (SelectScreen profiling (Invitrogen)) EUB0000607a PDGFRB; details: at 2 µM
[5] = molecular target: Rho-associated protein kinase 2 (Homo sapiens, UniProt O75116); experiment: Selectivity interaction (KinomeScan (DiscoverX)) EUB0001619a ROCK2; details: at 1 µM
[6] = molecular target: T3, Tyrosine-protein kinase JAK3 (Homo sapiens) (UniProt P52333); experiment: Selectivity interaction (ProQinase) EUB0000171b JAK3
T3 sequence (whole entry): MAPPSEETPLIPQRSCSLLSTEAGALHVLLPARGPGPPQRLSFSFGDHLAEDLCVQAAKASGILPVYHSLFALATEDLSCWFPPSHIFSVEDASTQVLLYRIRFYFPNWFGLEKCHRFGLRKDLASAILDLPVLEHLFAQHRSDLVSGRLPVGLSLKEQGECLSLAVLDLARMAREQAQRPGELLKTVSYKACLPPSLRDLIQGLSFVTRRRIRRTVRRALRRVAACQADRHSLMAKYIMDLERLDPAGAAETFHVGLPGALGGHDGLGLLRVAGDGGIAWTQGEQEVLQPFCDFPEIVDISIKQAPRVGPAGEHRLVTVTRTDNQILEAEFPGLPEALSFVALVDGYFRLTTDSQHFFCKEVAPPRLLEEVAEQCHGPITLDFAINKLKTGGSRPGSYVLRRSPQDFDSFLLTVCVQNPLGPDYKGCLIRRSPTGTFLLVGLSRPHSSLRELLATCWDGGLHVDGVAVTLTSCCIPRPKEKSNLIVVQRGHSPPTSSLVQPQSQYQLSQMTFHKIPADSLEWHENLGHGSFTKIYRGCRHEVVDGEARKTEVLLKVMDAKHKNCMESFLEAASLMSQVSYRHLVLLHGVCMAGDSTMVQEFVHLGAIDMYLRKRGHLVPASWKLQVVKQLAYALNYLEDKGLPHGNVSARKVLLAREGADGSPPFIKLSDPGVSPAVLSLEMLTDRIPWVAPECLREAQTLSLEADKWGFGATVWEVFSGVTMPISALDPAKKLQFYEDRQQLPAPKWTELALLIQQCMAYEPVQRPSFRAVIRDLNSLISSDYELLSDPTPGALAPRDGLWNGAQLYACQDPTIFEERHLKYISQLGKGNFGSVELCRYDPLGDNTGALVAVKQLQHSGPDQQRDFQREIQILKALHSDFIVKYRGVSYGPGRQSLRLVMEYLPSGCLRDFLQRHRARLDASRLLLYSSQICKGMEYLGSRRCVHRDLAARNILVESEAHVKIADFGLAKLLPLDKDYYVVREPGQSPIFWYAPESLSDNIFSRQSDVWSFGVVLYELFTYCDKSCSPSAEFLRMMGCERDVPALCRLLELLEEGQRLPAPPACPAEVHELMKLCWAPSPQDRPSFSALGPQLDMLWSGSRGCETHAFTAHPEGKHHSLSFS

Platelet-derived growth factor receptor beta, sequence (P09619 whole entry): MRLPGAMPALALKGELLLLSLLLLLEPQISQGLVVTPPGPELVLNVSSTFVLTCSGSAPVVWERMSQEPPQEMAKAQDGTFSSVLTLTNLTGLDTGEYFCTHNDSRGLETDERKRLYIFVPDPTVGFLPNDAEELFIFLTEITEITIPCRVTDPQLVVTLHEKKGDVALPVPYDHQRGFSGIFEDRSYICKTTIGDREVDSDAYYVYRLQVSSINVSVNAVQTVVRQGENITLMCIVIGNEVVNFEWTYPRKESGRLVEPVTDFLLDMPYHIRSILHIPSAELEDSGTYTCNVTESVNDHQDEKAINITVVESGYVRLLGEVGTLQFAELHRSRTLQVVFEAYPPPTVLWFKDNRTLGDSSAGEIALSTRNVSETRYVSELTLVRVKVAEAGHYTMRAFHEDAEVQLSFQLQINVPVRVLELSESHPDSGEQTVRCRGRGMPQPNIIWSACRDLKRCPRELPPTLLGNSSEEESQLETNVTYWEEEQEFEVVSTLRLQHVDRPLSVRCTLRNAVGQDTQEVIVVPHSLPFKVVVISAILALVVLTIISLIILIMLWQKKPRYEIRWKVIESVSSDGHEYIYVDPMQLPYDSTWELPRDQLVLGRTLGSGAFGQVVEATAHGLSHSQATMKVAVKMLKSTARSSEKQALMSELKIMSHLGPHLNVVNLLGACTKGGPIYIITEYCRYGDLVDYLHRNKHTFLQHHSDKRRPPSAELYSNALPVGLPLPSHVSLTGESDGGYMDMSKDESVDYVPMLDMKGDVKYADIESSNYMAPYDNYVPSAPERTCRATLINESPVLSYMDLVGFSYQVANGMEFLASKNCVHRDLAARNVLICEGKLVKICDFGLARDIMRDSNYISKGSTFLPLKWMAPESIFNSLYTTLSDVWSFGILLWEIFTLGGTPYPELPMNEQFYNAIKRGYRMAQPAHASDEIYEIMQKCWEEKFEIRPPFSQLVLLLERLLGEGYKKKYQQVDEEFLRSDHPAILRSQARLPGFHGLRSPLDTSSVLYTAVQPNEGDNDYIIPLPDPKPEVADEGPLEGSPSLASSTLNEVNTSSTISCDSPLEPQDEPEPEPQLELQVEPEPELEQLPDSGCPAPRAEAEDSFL
Mitogen-activated protein kinase kinase kinase 1, sequence (Q13233 whole entry): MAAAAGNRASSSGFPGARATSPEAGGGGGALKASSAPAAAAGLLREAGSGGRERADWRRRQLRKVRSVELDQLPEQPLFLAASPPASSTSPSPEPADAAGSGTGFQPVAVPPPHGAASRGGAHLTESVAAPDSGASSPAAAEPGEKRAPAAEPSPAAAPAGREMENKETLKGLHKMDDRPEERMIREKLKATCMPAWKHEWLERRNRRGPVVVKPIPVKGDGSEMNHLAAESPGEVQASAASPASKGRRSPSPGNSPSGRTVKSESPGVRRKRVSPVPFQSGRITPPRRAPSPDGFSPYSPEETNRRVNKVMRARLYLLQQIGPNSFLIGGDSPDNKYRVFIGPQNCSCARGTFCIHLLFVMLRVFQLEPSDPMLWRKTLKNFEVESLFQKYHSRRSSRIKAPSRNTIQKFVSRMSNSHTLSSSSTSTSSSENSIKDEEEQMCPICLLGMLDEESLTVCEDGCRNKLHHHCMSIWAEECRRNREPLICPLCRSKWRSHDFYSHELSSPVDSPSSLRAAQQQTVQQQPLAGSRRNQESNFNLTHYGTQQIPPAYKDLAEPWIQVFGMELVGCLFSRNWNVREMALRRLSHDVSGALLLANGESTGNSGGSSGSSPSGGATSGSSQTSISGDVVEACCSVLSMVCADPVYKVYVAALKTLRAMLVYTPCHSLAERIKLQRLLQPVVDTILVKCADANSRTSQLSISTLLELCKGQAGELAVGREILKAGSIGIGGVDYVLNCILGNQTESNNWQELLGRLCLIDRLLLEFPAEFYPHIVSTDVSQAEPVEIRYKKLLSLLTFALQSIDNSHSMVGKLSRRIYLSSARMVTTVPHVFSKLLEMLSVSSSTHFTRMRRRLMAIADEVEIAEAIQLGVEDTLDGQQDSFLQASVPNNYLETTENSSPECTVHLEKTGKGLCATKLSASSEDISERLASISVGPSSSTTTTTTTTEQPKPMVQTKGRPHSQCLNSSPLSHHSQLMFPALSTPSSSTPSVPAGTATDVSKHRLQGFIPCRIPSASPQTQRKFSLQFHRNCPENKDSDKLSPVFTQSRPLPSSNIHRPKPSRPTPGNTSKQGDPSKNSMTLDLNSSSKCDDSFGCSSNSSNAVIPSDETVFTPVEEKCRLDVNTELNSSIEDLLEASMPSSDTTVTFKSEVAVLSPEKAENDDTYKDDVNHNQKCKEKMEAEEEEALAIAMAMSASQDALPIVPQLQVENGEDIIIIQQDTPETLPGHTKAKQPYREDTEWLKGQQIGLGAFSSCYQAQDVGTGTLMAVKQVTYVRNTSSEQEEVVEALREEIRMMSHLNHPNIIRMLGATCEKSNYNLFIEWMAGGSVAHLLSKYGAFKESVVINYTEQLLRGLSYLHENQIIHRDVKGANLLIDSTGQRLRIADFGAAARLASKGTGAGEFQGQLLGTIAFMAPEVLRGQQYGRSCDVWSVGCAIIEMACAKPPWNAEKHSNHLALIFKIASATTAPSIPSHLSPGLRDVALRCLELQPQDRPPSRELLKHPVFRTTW
Rho-associated protein kinase 2, sequence (O75116 whole entry, looked up): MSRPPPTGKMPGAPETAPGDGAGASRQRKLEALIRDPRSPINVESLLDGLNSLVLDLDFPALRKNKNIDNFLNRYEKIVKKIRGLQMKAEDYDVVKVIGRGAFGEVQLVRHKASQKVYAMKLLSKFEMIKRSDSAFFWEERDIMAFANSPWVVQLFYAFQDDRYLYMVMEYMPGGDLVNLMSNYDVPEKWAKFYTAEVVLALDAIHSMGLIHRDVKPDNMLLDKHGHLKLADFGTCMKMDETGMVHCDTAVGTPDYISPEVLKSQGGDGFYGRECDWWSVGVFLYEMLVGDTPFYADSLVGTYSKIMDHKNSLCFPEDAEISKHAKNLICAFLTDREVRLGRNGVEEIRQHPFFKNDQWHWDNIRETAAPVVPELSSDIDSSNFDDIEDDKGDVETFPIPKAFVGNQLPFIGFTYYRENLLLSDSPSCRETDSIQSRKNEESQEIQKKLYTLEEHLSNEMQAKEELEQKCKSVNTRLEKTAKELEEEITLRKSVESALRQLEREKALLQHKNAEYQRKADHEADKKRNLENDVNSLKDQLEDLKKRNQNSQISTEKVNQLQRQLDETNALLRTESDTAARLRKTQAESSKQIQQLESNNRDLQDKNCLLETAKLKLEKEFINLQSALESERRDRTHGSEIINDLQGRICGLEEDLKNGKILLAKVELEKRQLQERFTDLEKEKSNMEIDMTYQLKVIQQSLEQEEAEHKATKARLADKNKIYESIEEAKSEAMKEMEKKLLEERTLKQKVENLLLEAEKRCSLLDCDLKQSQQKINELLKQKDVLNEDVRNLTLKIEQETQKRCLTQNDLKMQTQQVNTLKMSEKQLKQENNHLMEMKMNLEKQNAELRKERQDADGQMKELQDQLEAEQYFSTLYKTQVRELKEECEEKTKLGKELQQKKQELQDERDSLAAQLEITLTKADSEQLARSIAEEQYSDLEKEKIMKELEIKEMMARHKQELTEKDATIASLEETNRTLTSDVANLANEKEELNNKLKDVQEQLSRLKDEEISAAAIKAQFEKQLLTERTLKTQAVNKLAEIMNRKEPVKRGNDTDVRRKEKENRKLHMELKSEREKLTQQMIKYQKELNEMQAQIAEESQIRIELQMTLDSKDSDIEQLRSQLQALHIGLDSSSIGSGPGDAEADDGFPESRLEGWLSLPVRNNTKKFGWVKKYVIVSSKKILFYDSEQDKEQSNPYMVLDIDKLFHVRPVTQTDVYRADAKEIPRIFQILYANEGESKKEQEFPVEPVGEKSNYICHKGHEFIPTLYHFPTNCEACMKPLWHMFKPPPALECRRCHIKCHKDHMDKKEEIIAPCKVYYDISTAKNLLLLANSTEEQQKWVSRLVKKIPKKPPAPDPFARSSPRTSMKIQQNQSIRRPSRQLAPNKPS

Compound: CN(C)C/C=C/C(=O)Nc1ccc(C(=O)N2CCCC(Nc3ncc(Cl)c(-c4c[nH]c5ccccc45)n3)C2)cc1 (configuration not stated)
% of control [1]: 82%
% of control [2]: 88%

Compound: Nc1cnc(N2CCc3cc(S(=O)(=O)Nc4c(F)cc(Cl)cc4F)cc(N4CCCC4=O)c32)nc1 [TP-020n]
% of control [3]: 100%

Compound: CNC(=O)Nc1ccc(-c2nc(N3CC4CCC(C3)O4)c3cnn(C4CCC5(CC4)OCCO5)c3n2)cc1
% of inhibition [4]: 2%

Compound: N#Cc1cccc(-c2c[nH]c3ncnc(N4CCOCC4)c23)c1
% of control [5]: 75%

% of control ([6]; at 1 µM): 79%
% of control ([6]; at 5 µM): 54%
Compound: C=CC(=O)Nc1cccc(C(=O)Nc2ccc(Nc3cc(-c4[nH]c(SC)nc4C)ccn3)cc2)c1
